Test results taken from patent US5556744A, “Methods and compositions for diagnosing and treating certain HIV infected patients” (The Trustees of the University of Pennsylvania, priority 1994, dated 1996).

Key:
Set-up in all cases: species or system human
[1] = tested on: maternal serum samples (antibodies); test: ELISA peptide-binding of maternal sera, expanded peptide collection (Example 5); conditions: for Binding / reactivity of maternal sera to peptide (in words): Example 5
From the text: The gp120 and gp41 peptides used in this experiment include peptides 60 [SEQ ID NO:9], 93 [SEQ ID NO:10], 94 [SEQ ID NO:1], 95 [SEQ ID NO:11], 96 [SEQ ID NO:12], 97 [SEQ ID NO:13], 59 [SEQ ID NO:14], 106 [SEQ ID NO:15], 107 [SEQ ID NO:[…]], 1029/33 [SEQ ID NO:2], p18p [SEQ ID NO:17], B138 [SEQ ID NO:3], 466 [SEQ ID NO:4], 497 [SEQ ID NO:18], 117 [SEQ ID NO:19], F560 [SEQ ID NO:20], 35 [SEQ ID NO:5], 120 [SEQ ID NO:21], 121 [SEQ ID NO:22], 123 [SEQ ID NO:23], 36 [SEQ ID NO:24], 40 [SEQ ID NO:25], 41 [SEQ ID NO:26], 649 [SEQ ID NO:6], 53 [SEQ ID NO:7], 55 [SEQ ID NO:27], 128 [SEQ ID NO:28], 129 [SEQ ID NO:29], 132 [SEQ ID NO:30], 57 [SEQ ID NO:8], and 1103/55 [SEQ ID NO:31] from Table 2. These peptides were synthesized based on the same HIV IIIB isolate as were the peptides of Table 2. Alternative designations for these peptides are provided in brackets.
Each of the peptides was at least 85% pure, making them suitable for ELISA analyses. The average length of these peptides was 18 amino acid residues, which allows for a certain degree of local flexibility and conformational folding, thus facilitating detection of antibody species with reactivities to shaped structures.
The maternal serum samples were obtained from the Mothers/Infants Cohort Study described in Example 1. For the ELISA peptide-binding analyses performed essentially as described in Example 3, maternal serum samples were diluted to 1:50 or 1:500 with blocking buffer (1% bovine serum albumin in phosphate-buffered saline containing 0.05% Tween 20). Binding was measured using 10 μg/mL peptide per well and was considered positive if the experimental/control OD450nm ratio was ≥2. Normal (HIV seronegative) human sera were used as controls.

[2] = tested on: maternal sera (antibodies); test: ELISA peptide-binding of maternal sera (Example 6); conditions: for Number of Non-Transmitters which bound to peptide / Percent of Non-Transmitters which bound to peptide: N = 12; for Number of Transmitters which bound to peptide / Percent of Transmitters which bound to peptide: N = 4
In short: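 Third-trimester maternal sera, from HIV-1 transmitting and non-transmitting mothers, were tested by ELISA against ~16-residue peptides spanning HIV-1 external and transmembrane glycoproteins. Each serum was run with at least 40 peptides, and values are the percentage of sera binding each peptide.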

[3] = tested on: maternal HIV+ sera (antibodies); test: RIA / ELISA binding of maternal HIV+ sera to gp120 and gp41 peptides (Example 3); conditions: for Percent of the maternal serum samples that bound to the peptide: all 20 samples; for Correlation of peptide recognition with lack of vertical transmission: in words
In short: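 Peptides were coated at 10 μg/ml in carbonate buffer pH 9.6 and blocked with 1% BSA. Sera at 1:50 and 1:500 were incubated overnight at 4°C and detected with ¹²⁵I anti-human IgG (RIA) or HRP/TMB at OD450 (ELISA). Specific binding was taken as peptide minus no-peptide wells, scored as a ratio to normal human serum.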

[4] = Serum No. 1, Non-Transmission Group
[5] = Serum No. 2, Non-Transmission Group
[6] = Serum No. 3, Non-Transmission Group
[7] = Serum No. 4, Transmission Group
[8] = Serum No. 5, Transmission Group
[9] = Serum No. 6, Non-Transmission Group
[10] = Serum No. 7, Non-Transmission Group
[11] = Serum No. 8, Non-Transmission Group
[12] = Serum No. 9, Non-Transmission Group
[13] = Serum No. 10, Transmission Group
[14] = Serum No. 11, Non-Transmission Group
[15] = Serum No. 12, Non-Transmission Group
[16] = Serum No. 13, Transmission Group
[17] = Serum No. 14, Transmission Group
[18] = Serum No. 15, Transmission Group
[19] = Serum No. 16, Non-Transmission Group
[20] = Serum No. 17, Non-Transmission Group
[21] = Serum No. 18, Non-Transmission Group
[22] = Serum No. 19, Transmission Group
[23] = Serum No. 20, Non-Transmission Group

Substance	Binding / reactivity of maternal sera to peptide (in words) [1]	Number of Non-Transmitters which bound to peptide [2]	Percent of Non-Transmitters which bound to peptide [2] [%]	Number of Transmitters which bound to peptide [2]	Percent of Transmitters which bound to peptide [2] [%]	Binding of maternal HIV+ serum to peptide (sera/NHS ratio) [3, 4]	Binding of maternal HIV+ serum to peptide (sera/NHS ratio) [3, 5]	Binding of maternal HIV+ serum to peptide (sera/NHS ratio) [3, 6]	Binding of maternal HIV+ serum to peptide (sera/NHS ratio) [3, 7]	Binding of maternal HIV+ serum to peptide (sera/NHS ratio) [3, 8]	Binding of maternal HIV+ serum to peptide (sera/NHS ratio) [3, 9]	Binding of maternal HIV+ serum to peptide (sera/NHS ratio) [3, 10]	Binding of maternal HIV+ serum to peptide (sera/NHS ratio) [3, 11]	Binding of maternal HIV+ serum to peptide (sera/NHS ratio) [3, 12]	Binding of maternal HIV+ serum to peptide (sera/NHS ratio) [3, 13]	Binding of maternal HIV+ serum to peptide (sera/NHS ratio) [3, 14]	Binding of maternal HIV+ serum to peptide (sera/NHS ratio) [3, 15]	Binding of maternal HIV+ serum to peptide (sera/NHS ratio) [3, 16]	Binding of maternal HIV+ serum to peptide (sera/NHS ratio) [3, 17]	Binding of maternal HIV+ serum to peptide (sera/NHS ratio) [3, 18]	other results
56: gp41 peptide, amino acids 747-767, HIV strain IIIB, SEQ ID NO: 156 (RLVNGSLALIWDDLRSLCLFS) [Peptide 56]	recognized by the transmission group	0	0	0	0																Percent of both groups that bound to the peptide ([1]; transmission and non-transmission groups): more than 50%
58: gp41 peptide, amino acids 794-817, HIV strain IIIB, SEQ ID NO: 173 (KYWWNLLQYWSQELKNSAVSLLNA) [Peptide 58]	recognized by the transmission group	3	25	0	0																
CQNQQEKNEQELLEL [Peptide 649]	recognized by the transmission group	7	43.8	2	50	++ (which value is greater than 3)	+ (which value is between 2 to 3)	+ (which value is between 2 to 3)	+ (which value is between 2 to 3)	- (specific OD450 or cpm of sera sample binding to peptide divided by the specific OD450 or cpm of NHS sample binding to peptide, which value is less than 2)	++ (which value is greater than 3)	++ (which value is greater than 3)	++ (which value is greater than 3)	- (specific OD450 or cpm of sera sample binding to peptide divided by the specific OD450 or cpm of NHS sample binding to peptide, which value is less than 2)	- (specific OD450 or cpm of sera sample binding to peptide divided by the specific OD450 or cpm of NHS sample binding to peptide, which value is less than 2)	++ (which value is greater than 3)	++ (which value is greater than 3)	- (specific OD450 or cpm of sera sample binding to peptide divided by the specific OD450 or cpm of NHS sample binding to peptide, which value is less than 2)	+ (which value is between 2 to 3)	+ (which value is between 2 to 3)	Difference in binding of samples from transmission vs non-transmission group (Spearman rank-order correlation) ([3]; Example 3): significant statistical difference; Binding of maternal HIV+ serum to peptide (sera/NHS ratio) [3, 19]: - (specific OD450 or cpm of sera sample binding to peptide divided by the specific OD450 or cpm of NHS sample binding to peptide, which value is less than 2); Binding of maternal HIV+ serum to peptide (sera/NHS ratio) [3, 20]: + (which value is between 2 to 3); Binding of maternal HIV+ serum to peptide (sera/NHS ratio) [3, 21]: + (which value is between 2 to 3); Binding of maternal HIV+ serum to peptide (sera/NHS ratio) [3, 22]: - (specific OD450 or cpm of sera sample binding to peptide divided by the specific OD450 or cpm of NHS sample binding to peptide, which value is less than 2); Binding of maternal HIV+ serum to peptide (sera/NHS ratio) [3, 23]: - (specific OD450 or cpm of sera sample binding to peptide divided by the specific OD450 or cpm of NHS sample binding to peptide, which value is less than 2); Percent of the maternal serum samples that bound to the peptide [3]: 70%; Correlation of peptide recognition with lack of vertical transmission [3]: correlated with non-transmission status; Correlation of peptide recognition with lack of vertical transmission ([3]; listed as SEQ ID NO: 6): clearly correlated to non-transmission status
NATAIAVAEGTDRVIEVVQGAYRAI [1103/55]	recognized by the transmission group	0	0	0	0	- (specific OD450 or cpm of sera sample binding to peptide divided by the specific OD450 or cpm of NHS sample binding to peptide, which value is less than 2)	++ (which value is greater than 3)	- (specific OD450 or cpm of sera sample binding to peptide divided by the specific OD450 or cpm of NHS sample binding to peptide, which value is less than 2)	++ (which value is greater than 3)	- (specific OD450 or cpm of sera sample binding to peptide divided by the specific OD450 or cpm of NHS sample binding to peptide, which value is less than 2)	++ (which value is greater than 3)	++ (which value is greater than 3)	++ (which value is greater than 3)	- (specific OD450 or cpm of sera sample binding to peptide divided by the specific OD450 or cpm of NHS sample binding to peptide, which value is less than 2)	- (specific OD450 or cpm of sera sample binding to peptide divided by the specific OD450 or cpm of NHS sample binding to peptide, which value is less than 2)	- (specific OD450 or cpm of sera sample binding to peptide divided by the specific OD450 or cpm of NHS sample binding to peptide, which value is less than 2)	++ (which value is greater than 3)	- (specific OD450 or cpm of sera sample binding to peptide divided by the specific OD450 or cpm of NHS sample binding to peptide, which value is less than 2)	++ (which value is greater than 3)	- (specific OD450 or cpm of sera sample binding to peptide divided by the specific OD450 or cpm of NHS sample binding to peptide, which value is less than 2)	Binding of maternal HIV+ serum to peptide (sera/NHS ratio) [3, 19]: - (specific OD450 or cpm of sera sample binding to peptide divided by the specific OD450 or cpm of NHS sample binding to peptide, which value is less than 2); Binding of maternal HIV+ serum to peptide (sera/NHS ratio) [3, 20]: ++ (which value is greater than 3); Binding of maternal HIV+ serum to peptide (sera/NHS ratio) [3, 21]: ++ (which value is greater than 3); Binding of maternal HIV+ serum to peptide (sera/NHS ratio) [3, 22]: - (specific OD450 or cpm of sera sample binding to peptide divided by the specific OD450 or cpm of NHS sample binding to peptide, which value is less than 2); Binding of maternal HIV+ serum to peptide (sera/NHS ratio) [3, 23]: - (specific OD450 or cpm of sera sample binding to peptide divided by the specific OD450 or cpm of NHS sample binding to peptide, which value is less than 2); Percent of the maternal serum samples that bound to the peptide [3]: 45%
